Reference: US7358250B2, “Pyrrolo[2,3-d]pyrimidines that modulate ACK1 activity” (Amgen Inc., priority 2004, dated 2008)

What was measured:
ACK1 = target: T1, ACK1 (Homo sapiens, UniProt Q07912); experiment: ACK1 Enzymatic Assay; type: biochemical; conditions: 5 μM ATP, ELISA phosphotyrosine readout
T1 construct: a fusion of an N-terminal (His)6 Tag with amino acids 117 to 489 of ACK1; (His)6 (N); made in house; host or cells: baculovirus infected Hi-5 insect cells
Protocol: IC50 values of inventive compounds may be assessed as follows. […] The substrate of for the reaction is ACK1 itself (autophosphorylation) and poly-Glutamic acid-Tyrosine (PGT (4:1), Sigma catalog #PO275). The PGT is coated to Nunc 96 well plates at 80 μg/mL overnight at 4° C. […] Test compounds are added in 10 μL DMSO, and the reaction is started by addition of 10 μL kinase in assay buffer. The reaction proceeds 2 h at room temperature. Next the plates are washed four times, and the level of tyrosine phosphorylation in a given well is quantified by standard ELISA assay utilizing a phosphotyrosine antibody (PY20, Pierce).

C8 cells = experiment: ACK1 Cell Based Assay, test (C8) cell line; conditions: 0.125% FCS, 20 to 24 h; for IC50: cell viability (Cytotox One kit)
Protocol: (§1) The ACK1 cell based assay is designed to find inhibitors of ACK1 kinase activity which would be prime candidates for the development of anticancer drugs. […] This dependency was confirmed utilizing ACK1 specific siRNAs.
(§2) For this assay, test (C8) and control (HeLa) cell lines are seeded in 96 well tissue culture plates (BD Falcon) at a density of 2 to 4×10^4 in DMEM/F12 (C8) or DMEM (HeLa) with 0.125% FCS in the presence of ACK1 inhibitors (final DMSO concentration is 0.5%, all tissue culture media are from Cellgro). After 20 to 24 h incubation at 37° C. and 5% CO2, cell viability is determined using the Cytotox One kit (Promega) according to the manufacturer's instructions.

HeLa cells = experiment: ACK1 Cell Based Assay, control (HeLa) cell line; conditions: 0.125% FCS, 20 to 24 h
Protocol: as §1, §2

LCK = target: T2, LCK (Homo sapiens, UniProt P06239); experiment: LCK-Homogeneous Time Resolved Fluorescent (HTRF) Kinase Assay; type: biochemical; conditions: LCK KD GST (225-509)
T2 construct: 15 μL of LCK KD GST (225-509) for a final volume of 40 μL; GST
T2 sequence (P06239 225-509): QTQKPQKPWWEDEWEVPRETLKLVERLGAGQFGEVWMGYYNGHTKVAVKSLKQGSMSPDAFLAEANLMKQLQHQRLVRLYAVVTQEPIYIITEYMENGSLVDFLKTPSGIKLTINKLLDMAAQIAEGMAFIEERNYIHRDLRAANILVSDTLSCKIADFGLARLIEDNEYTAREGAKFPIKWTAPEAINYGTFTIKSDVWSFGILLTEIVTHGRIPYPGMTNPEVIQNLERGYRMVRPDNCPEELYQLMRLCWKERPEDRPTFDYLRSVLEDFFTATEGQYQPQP
Protocol: The LCK HTRF assay begins with LCK in the presence of ATP phosphorylating the biotinylated peptide Gastrin. The reaction incubates for 90 min. To quench the assay detection reagents are added which both stop the reaction by diluting out the enzyme and chelating the metals due to the presence of EDTA. Once the detection reagents are added the assay incubates for 30 min to allow for equilibration of the detection reagents.
The final concentration of gastrin is 1.2 μM. The final concentration of ATP is 0.5 μM (Km app=[…]) and the final concentration of LCK is […]. Buffer conditions are as follows: 50 mM HEPES pH 7.5, 50 mM NaCl, 20 mM MgCl, 5 mM MnCl, 2 mM DTT, 0.05% BSA.
The assay is quenched and stopped with 160 μL of detection reagent. Detection reagents are as follows: Buffer made of 50 mM Tris, pH 7.5, 100 mM NaCl, 3 mM EDTA, 0.05% BSA, 0.1% Tween20. Added to this buffer prior to reading is Steptavidin allophycocyanin (SA-APC) at a final conc in the assay of 0.0004 mg/mL, and europilated anti-phosphotyrosine Ab (Eu-anti-PY) at a final conc of 0.025 nM.
The assay plate is read in either a Discovery or a RubyStar. The eu-anti-PY is excited at 320 nm and emits at 615 nm to excite the SA-APC which in turn emits at 655 nm. The ratio of SA-APC at 655 nm (excited due to close proximity to the Eu-anti-PY because of phosphorylation of the peptide) to free Eu-anti-PY at 615 nm will give substrate phosphorylation.

T1 sequence (Q07912 117-489): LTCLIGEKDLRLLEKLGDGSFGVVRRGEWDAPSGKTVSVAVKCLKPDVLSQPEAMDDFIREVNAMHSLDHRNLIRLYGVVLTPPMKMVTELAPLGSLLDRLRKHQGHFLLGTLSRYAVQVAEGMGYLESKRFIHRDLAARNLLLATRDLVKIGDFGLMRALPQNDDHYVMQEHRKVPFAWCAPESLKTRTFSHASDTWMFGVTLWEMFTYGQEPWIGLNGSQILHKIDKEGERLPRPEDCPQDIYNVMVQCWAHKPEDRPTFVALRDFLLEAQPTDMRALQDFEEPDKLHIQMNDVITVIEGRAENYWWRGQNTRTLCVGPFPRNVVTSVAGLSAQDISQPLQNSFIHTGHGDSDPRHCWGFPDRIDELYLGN

| Ki (ACK1) | Ki (LCK) | Structure (SMILES) | cytotoxicity to C8 cells (C8 cells) | IC50 (C8 cells) | cytotoxic effect on HeLa cells (HeLa cells) |
| --- | --- | --- | --- | --- | --- |
| < 0.01 µM | < 0.01 µM | CN(C)CCOc1ccc(-c2[nH]c3ncnc(NC[C@@H]4CCCO4)c3c2-c2ccccc2)cc1 [Example 20, {6-[4-(2-Dimethylamino-ethoxy)-phenyl]-5-phenyl-7H-pyrrolo[2,3-d]pyrimidin-4-yl}-(tetrahydro-furan-2-ylmethyl)-amine] | cytotoxic | 0.01 to 0.1 µM | no cytotoxic effect |
| 0.01 to 0.1 µM | < 0.01 µM | CO[C@@H]1CC[C@H]1CNc1ncnc2[nH]c(-c3ccc(OCCN(C)C)cc3)c(-c3ccccc3)c12 (mixture of isomers) [Example 35, trans/cis-{6-[4-(2-Dimethylamino-ethoxy)-phenyl]-5-phenyl-7H-pyrrolo[2,3-d]pyrimidin-4-yl}-(2-methoxy-cyclobutylmethyl)-amine] |  | > 0.1 µM |  |
| < 0.01 µM | < 0.01 µM | c1ccc(-c2c(-c3ccc(OCCN4CCCC4)cc3)[nH]c3ncnc(NCC4CCCO4)c23)cc1 (centres unmarked) [Example 22, {5-Phenyl-6-[4-(2-pyrrolidin-1-yl-ethoxy)-phenyl]-7H-pyrrolo[2,3-d]pyrimidin-4-yl}-(tetrahydrofuran-2-ylmethyl)-amine] |  | 0.01 to 0.1 µM |  |
| 0.01 to 0.1 µM | 0.01 to 0.1 µM | CC(C)(C)OC(=O)CNS(=O)(=O)c1ccc(-c2[nH]c3ncnc(NCC4CCCO4)c3c2-c2ccccc2)cc1 (centres unmarked) [Example 13, (4-{5-Phenyl-4-[(tetrahydrofuran-2-ylmethyl)-amino]-7H-pyrrolo[2,3-d]pyrimidin-6-yl}-benzenesulfonylamino)-acetic acid tert-butyl ester] |  | > 0.1 µM |  |
| 0.01 to 0.1 µM | < 0.01 µM | CN(C)CCOc1ccc(-c2[nH]c3ncnc(NC[C@@H]4CCC[C@H]4NS(C)(=O)=O)c3c2-c2ccccc2)cc1 (relative stereo) [Example 41, trans-N-[2-({6-[4-(2-Dimethylamino-ethoxy)-phenyl]-5-phenyl-7H-pyrrolo[2,3-d]pyrimidin-4-ylamino}-methyl)-cyclopentyl]-methanesulfonamide] |  | > 0.1 µM |  |
| 0.01 to 0.1 µM | 0.01 to 0.1 µM | c1ccc(-c2[nH]c3ncnc(NCCN4CCOCC4)c3c2-c2ccccc2)cc1 [Example 1, (5,6-Diphenyl-7H-pyrrolo[2,3-d]pyrimidin-4-yl)-(2-morpholin-4-ylethyl)-amine] |  | > 0.1 µM |  |
| > 0.1 µM | < 0.01 µM | CN(C)CCOc1ccc(-c2[nH]c3ncnc(NC[C@H]4CCC[C@H]4NS(C)(=O)=O)c3c2-c2ccccc2)cc1 (relative stereo) [Example 39, cis-N-[2-({6-[4-(2-Dimethylamino-ethoxy)-phenyl]-5-phenyl-7H-pyrrolo[2,3-d]pyrimidin-4-ylamino}-methyl)-cyclopentyl]-methanesulfonamide] |  | > 0.1 µM |  |
| < 0.01 µM | < 0.01 µM | O=C(NC1CC1)c1ccc(-c2[nH]c3ncnc(NCC4CCCO4)c3c2-c2ccccc2)cc1 (centres unmarked) [Example 29, N-Cyclopropyl-4-{5-phenyl-4-[(tetrahydrofuran-2-ylmethyl)-amino]-7H-pyrrolo[2,3-d]pyrimidin-6-yl}-benzamide] |  | 0.01 to 0.1 µM |  |
| < 0.01 µM | 0.01 to 0.1 µM | O=C(O)CNS(=O)(=O)c1ccc(-c2[nH]c3ncnc(NC[C@@H]4CCCO4)c3c2-c2ccccc2)cc1 [Example 17] |  | > 0.1 µM |  |
| < 0.01 µM | < 0.01 µM | O=S(=O)(c1ccc(-c2[nH]c3ncnc(NCC4CCCO4)c3c2-c2ccccc2)cc1)N1CCOCC1 (centres unmarked) [Example 10, {6-[4-(Morpholin-4-sulfonyl)-phenyl]-5-phenyl-7H-pyrrolo[2,3-d]pyrimidin-4-yl}-(tetrahydrofuran-2-ylmethyl)-amine] |  | > 0.1 µM |  |

Further lines, the molecule ahead of its results:

| Structure (SMILES) | Ki (ACK1) | Ki (LCK) | cytotoxicity to C8 cells (C8 cells) | IC50 (C8 cells) | cytotoxic effect on HeLa cells (HeLa cells) |
| --- | --- | --- | --- | --- | --- |
| CN(C)S(=O)(=O)c1ccc(-c2[nH]c3ncnc(NC[C@@H]4CCCO4)c3c2-c2ccccc2)cc1 [Example 5, N,N-Dimethyl-4-{5-phenyl-4-[(tetrahydro-furan-2-ylmethyl)-amino]-7H-pyrrolo[2,3-d]pyrimidin-6-yl}-benzenesulfonamide] | < 0.01 µM | < 0.01 µM |  | 0.01 to 0.1 µM |  |
| CN(C)C(=O)c1ccc(-c2[nH]c3ncnc(NCC4CCCO4)c3c2-c2ccccc2)cc1 (centres unmarked) [Example 27, N,N-Dimethyl-4-{5-phenyl-4-[(tetrahydrofuran-2-ylmethyl)-amino]-7H-pyrrolo[2,3-d]pyrimidin-6-yl}-benzamide] | < 0.01 µM | < 0.01 µM |  | 0.01 to 0.1 µM |  |
| O=S(=O)(c1ccc(-c2[nH]c3ncnc(NC[C@@H]4CCCO4)c3c2-c2ccccc2)cc1)N(CCO)CCO [Example 19, N,N-Bis-(2-hydroxyethyl)-4-{5-phenyl-4-[(tetrahydro-furan-2-ylmethyl)-amino]-7H-pyrrolo[2,3-d]pyrimidin-6-yl}-benzenesulfonamide] | < 0.01 µM | < 0.01 µM |  | > 0.1 µM |  |
| CNS(=O)(=O)c1ccc(-c2[nH]c3ncnc(NCC4CCCO4)c3c2-c2ccccc2)cc1 (centres unmarked) [Example 6, N-Methyl-4-{5-phenyl-4-[(tetrahydrofuran-2-ylmethyl)-amino]-7H-pyrrolo[2,3-d]pyrimidin-6-yl}-benzenesulfonamide] | < 0.01 µM | < 0.01 µM |  | 0.01 to 0.1 µM |  |
| O=C(c1ccc(-c2[nH]c3ncnc(NCC4CCCO4)c3c2-c2ccccc2)cc1)N1CCOCC1 (centres unmarked) [Example 28, Morpholin-4-yl-(4-{5-phenyl-4-[(tetrahydrofuran-2-ylmethyl)-amino]-7H-pyrrolo[2,3-d]pyrimidin-6-yl}-phenyl)-methanone] | < 0.01 µM | > 0.1 µM |  | 0.01 to 0.1 µM |  |
| CCOC(=O)CN(CC(=O)OCC)S(=O)(=O)c1ccc(-c2[nH]c3ncnc(NCC4CCCO4)c3c2-c2ccccc2)cc1 (centres unmarked) [Example 14, [Ethoxycarbonylmethyl-(4-{5-phenyl-4-[(tetrahydrofuran-2-ylmethyl)-amino]-7H-pyrrolo[2,3-d]pyrimidin-6-yl}-benzenesulfonyl)-amino]-acetic acid ethyl ester] | < 0.01 µM | 0.01 to 0.1 µM |  | > 0.1 µM |  |
| N#CCOc1ccc(-c2[nH]c3ncnc(NC[C@@H]4CCCO4)c3c2-c2ccccc2)cc1 [Example 25, (4-{5-Phenyl-4-[(tetrahydrofuran-2-ylmethyl)-amino]-7H-pyrrolo[2,3-d]pyrimidin-6-yl}-phenoxy)-acetonitrile] | < 0.01 µM | 0.01 to 0.1 µM |  | 0.01 to 0.1 µM |  |
| CN(C)CCOc1ccc(-c2[nH]c3ncnc(NC[C@@H]4CCC[C@H]4N)c3c2-c2ccccc2)cc1 (relative stereo) [Example 40, trans-(2-Amino-cyclopentylmethyl)-{6-[4-(2-dimethylamino-ethoxy)-phenyl]-5-phenyl-7H-pyrrolo[2,3-d]pyrimidin-4-yl}-amine] | > 0.1 µM | < 0.01 µM |  | > 0.1 µM |  |
| COCCNC(=O)c1ccc(-c2[nH]c3ncnc(NCC4CCCO4)c3c2-c2ccccc2)cc1 (centres unmarked) [Example 30, N-(2-Methoxyethyl)-4-{5-phenyl-4-[(tetrahydrofuran-2-ylmethyl)-amino]-7H-pyrrolo[2,3-d]pyrimidin-6-yl}-benzamide] | < 0.01 µM | < 0.01 µM |  | 0.01 to 0.1 µM |  |
| O=S(=O)(NCCN1CCOCC1)c1ccc(-c2[nH]c3ncnc(NCC4CCCO4)c3c2-c2ccccc2)cc1 (centres unmarked) [Example 11, N-(2-Morpholin-4-yl-ethyl)-4-{5-phenyl-4-[(tetrahydrofuran-2-ylmethyl)-amino]-7H-pyrrolo[2,3-d]pyrimidin-6-yl}-benzenesulfonamide] | < 0.01 µM | < 0.01 µM |  | 0.01 to 0.1 µM |  |
